Results: patent US20070270392A1, “Use of a Cyclopentenone Prostaglandin for Delaying the Onset and/or Preventing the Continuation of Labour” (Imperial College Innovations Limited, priority 2003, published 2007)

Legend:
NF-κB [1] = experiment: NF-κB-dependent luciferase reporter (κB.BG.Luc) in myometrial cells; assay type: cell-based, human; settings: for IL-1-induced NF-κB transcriptional activity: treated 2 h, IL-1β 1 ng/ml 6 h
Method: Myometrial cells were transiently transfected with the NFκB-dependent reporter construct κB.BG.Luc, treated with 15dPGJ2 or vehicle for 2 h, +/−IL-1β(1 ng/ml) for 6 h. […] Values are normalised for b-gal reporter activity. (NS=nonstimulated).
Myometrial cells were transfected with […] κB.BG.Luc reporter and 200 ng PPAR-γ expression vector and treated with 15d-PGJ2 for 2 h followed by IL-1β (1 ng/ml) for 6 h. Values are normalised for β-galactosidase reporter activity. (NS=nonstimulated).
(§1) Myometrial tissue was collected at term from the upper margin of uterine incision at the time of lower segment caesarean section either prior to the onset of labour (L−) or […] (L+). L+ samples were collected by Dr Mark Johnson and Dr S Soorrana at Chelsea & Westminster Hospital. Myometrial tissue was dissected, rinsed in PBS, and digested in serum-free DMEM containing 15 mg/ml collagenase 1A (Sigma), 15 mg/ml collagenase X, and 50 mg/ml bovine serum albumin for 45 min at 37° C. The cell suspension was filtered through a cell strainer, centrifuged at 400 g for 5 min, and the pellet re-suspended and plated out in DMEM, 10% FCS (Helena BioScience), 1% L-glutamine, 1% penicillin-streptomycin. Cells were used between passage numbers 1-4.
pGL3.6 κB.BG.luc: a NF-κB-dependent reporter construct with 6 copies of the NF-κB binding site.
Cells were co-transfected with the renilla vector pRL-CMV or a β-galactosidase vector pCH110 as internal controls for transfection efficiencies.

NF-κB [2] = experiment: EMSA of NF-κB DNA binding in nuclear extracts of treated myometrial cells; assay type: cell-based, human; settings: for IL-1β-induced NF-κB DNA binding: myometrial cells, treated 2 h, IL-1β stimulation 15 min
Method: Electro-mobility shift assay (EMSA) analysis of NF-κB DNA binding in nuclear protein extracts from (A) myometrial cells, (B) L+amnion cells, and (C) L− amnion cells treated with 15dPGJ2 or vehicle for 2 h+/−IL-1b stimulation (15 min). Consensus kB probe used to assess NF-κB DNA binding, and consensus Oct-1 probe used as control.
Consensus κB probe used to assess NF-κB DNA binding, consensus Oct-1 probe used as control. For supershift analysis, extracts were preincubated with antibodies against p50 or p65.
EMSA analysis of nuclear protein extracts from myometrial cells treated with (A) WY-14643 or vehicle, and (B) high doses of troglitazone, WY-14643 or vehicle for 2 h followed by IL-1b stimulation (15 min). Consensus κB probe used to assess NFκB DNA binding, consensus Oct-1 and Sp-1 probes used as controls.
EMSA analysis of nuclear protein extracts from (A) myometrial cells, and (B) amnion cells treated with PGA1 or vehicle for 2 h followed by IL-1b stimulation (15 min). Consensus κB probe used to assess NFκB DNA binding, consensus Oct-1 probe used as control. For supershift analysis, extracts were preincubated with antibodies against p50 or p65.
Analysis of nuclear protein extracts from myometrial cells treated with PGE2 or vehicle for 2 h+/−TNFα or IL-1b stimulation (15 min). (A) EMSA using consensus κB probe. (B) Western immunoblot probing for nuclear p65.
EMSA analysis of nuclear protein extracts from (A) L− amnion cells and (B) myometrial cells treated with vehicle, PGE2 or IL-1β. Consensus κB probe used.
as §1
Nuclear and cytosolic protein extracts were obtained from cultured amnion cells as described by Schreiber et al (1989). For nuclear/cytosolic fractionation, confluent cell monolayers were scraped and lysed using a buffer containing 10 mM HEPES, 10 mM KCl, 0.1 mM EDTA, 0.1 mM EGTA, 2 mM DTT, 1% (v/v) NP-40 and complete protease inhibitor tablets (CPIs, Roche), diluted to manufacturer's instructions. Cell lysates were incubated on ice for 10 min and NP-40 added to a final concentration of 1% (v/v). Lysates were vortexed for 10 secs and centrifuged for 30 secs at 4° C., 12000 g. The supernatants were retained as the cytosolic protein extracts. The pellets were resuspended in buffer containing 10 mM HEPES, 10 mM KCl, 0.1 mM EDTA, 0.1 mM EGTA, 2 mM DTT, 400 mM NaCl, 1% NP-40 (v/v) and CPIs. Samples were shaken vigorously for 15 min in an ice bath. The nuclear protein extracts were obtained in the supernatant following a 5 min centrifugation at 4° C., 12000 g.
Sense and antisense strands (175 nmole/ml each) were incubated in annealing buffer (10 mM Tris-HCl pH7.5, 100 mM NaCl, 1 mM EDTA) for 10 min at 65° C., and allowed to cool at room temperature for 2 h. 3.5 pmole double-stranded oligonucleotides were end-labelled with 0.37 MBq ^32P(γATP) by incubating for 30 min at 37° C. with T4 polynucleotide kinase. Labelled oligonucleotides were recovered by centrifugation at […] for 2 min through MicroSpin G-25 or G-50 sephadex columns (Amersham Biosciences). […]

Structure (SMILES)	IL-1-induced NF-κB transcriptional activity (NF-κB [1])	IL-1β-induced NF-κB DNA binding (NF-κB [2])	Effect of PPARγ overexpression on 15d-PGJ2 inhibition of NF-κB transcriptional activity (NF-κB [1]; 200 ng PPAR-γ expression vector)	Protein binding to a consensus Oct-1 or Sp-1 probe (control) (NF-κB [2]; control for NF-κB-specific effect)
CCCCC[C@H](O)/C=C/[C@H]1C=CC(=O)[C@@H]1CCCCCCC(=O)O [PGA1, prostaglandin A1]	reduced to basal levels	able to inhibit	–	–
CCCCCC=CC=C1C(=O)C=C[C@@H]1CC=CCCCC(=O)O [15d-PGJ2, 15-deoxy-Δ^12,14prostaglandin J2]	inhibited	inhibited	did not promote	unaffected
